Key:
Assay type in all cases: functional
CCRF-CEM = assay: Growth inhibition of human CCRF-CEM cells assessed as cell growth at 10 uM incubated for 48 hrs by sulforhodamine B assay relative to control; details: read-out: Activity
RPMI-8226 = assay: Growth inhibition of human RPMI8226 cells assessed as cell growth at 10 uM incubated for 48 hrs by sulforhodamine B assay relative to control; details: RPMI-8226, 48 h, read-out: Activity
A549 = assay: Growth inhibition of human A549/ATCC cells assessed as cell growth at 10 uM incubated for 48 hrs by sulforhodamine B assay relative to control; details: A549, 48 h, read-out: Activity
NCI-H23 = assay: Growth inhibition of human NCI-H23 cells assessed as cell growth at 10 uM incubated for 48 hrs by sulforhodamine B assay relative to control; details: NCI-H23, 48 h, read-out: Activity
NCI-H322M = assay: Growth inhibition of human NCI-H322M cells assessed as cell growth at 10 uM incubated for 48 hrs by sulforhodamine B assay relative to control; details: read-out: Activity
NCI-H460 = assay: Growth inhibition of human NCI-H460 cells assessed as cell growth at 10 uM incubated for 48 hrs by sulforhodamine B assay relative to control; details: NCI-H460, 48 h, read-out: Activity
NCI-H522 = assay: Growth inhibition of human NCI-H522 cells assessed as cell growth at 10 uM incubated for 48 hrs by sulforhodamine B assay relative to control; details: NCI-H522, 48 h, read-out: Activity
HCC 2998 = assay: Growth inhibition of human HCC2998 cells assessed as cell growth at 10 uM incubated for 48 hrs by sulforhodamine B assay relative to control; details: HCC 2998, 48 h, read-out: Activity
HCT-116 = assay: Growth inhibition of human HCT116 cells assessed as cell growth at 10 uM incubated for 48 hrs by sulforhodamine B assay relative to control; details: HCT-116, 48 h, read-out: Activity
HT-29 = assay: Growth inhibition of human HT-29 cells assessed as cell growth at 10 uM incubated for 48 hrs by sulforhodamine B assay relative to control; details: HT-29, 48 h, read-out: Activity
KM12 = assay: Growth inhibition of human KM12 cells assessed as cell growth at 10 uM incubated for 48 hrs by sulforhodamine B assay relative to control; details: KM12, 48 h, read-out: Activity
SW-620 = assay: Growth inhibition of human SW620 cells assessed as cell growth at 10 uM incubated for 48 hrs by sulforhodamine B assay relative to control; details: SW-620, 48 h, read-out: Activity
SF-268 = assay: Growth inhibition of human SF268 cells assessed as cell growth at 10 uM incubated for 48 hrs by sulforhodamine B assay relative to control; details: SF-268, 48 h, read-out: Activity
SNB-19 = assay: Growth inhibition of human SNB19 cells assessed as cell growth at 10 uM incubated for 48 hrs by sulforhodamine B assay relative to control; details: SNB-19, 48 h, read-out: Activity
U-251 = assay: Growth inhibition of human U251 cells assessed as cell growth at 10 uM incubated for 48 hrs by sulforhodamine B assay relative to control; details: U-251, 48 h, read-out: Activity
LOX IMVI = assay: Growth inhibition of human LOXIMVI cells assessed as cell growth at 10 uM incubated for 48 hrs by sulforhodamine B assay relative to control; details: read-out: Activity
Malme-3M = assay: Growth inhibition of human MALME-3M cells assessed as cell growth at 10 uM incubated for 48 hrs by sulforhodamine B assay relative to control; details: read-out: Activity
M14 = assay: Growth inhibition of human M14 cells assessed as cell growth at 10 uM incubated for 48 hrs by sulforhodamine B assay relative to control; details: M14, 48 h, read-out: Activity
SK-MEL-2 = assay: Growth inhibition of human SK-MEL-2 cells assessed as cell growth at 10 uM incubated for 48 hrs by sulforhodamine B assay relative to control; details: SK-MEL-2, 48 h, read-out: Activity
UACC-62 = assay: Growth inhibition of human UACC62 cells assessed as cell growth at 10 uM incubated for 48 hrs by sulforhodamine B assay relative to control; details: UACC-62, 48 h, read-out: Activity
OVCAR-3 = assay: Growth inhibition of human OVCAR3 cells assessed as cell growth at 10 uM incubated for 48 hrs by sulforhodamine B assay relative to control; details: OVCAR-3, 48 h, read-out: Activity
OVCAR-8 = assay: Growth inhibition of human OVCAR8 cells assessed as cell growth at 10 uM incubated for 48 hrs by sulforhodamine B assay relative to control; details: OVCAR-8, 48 h, read-out: Activity
NCI/ADR-RES = assay: Growth inhibition of human NCI/ADR-RES cells assessed as cell growth at 10 uM incubated for 48 hrs by sulforhodamine B assay relative to control; details: read-out: Activity
786-0 = assay: Growth inhibition of human 786-0 cells assessed as cell growth at 10 uM incubated for 48 hrs by sulforhodamine B assay relative to control; details: 786-0, 48 h, read-out: Activity
A498 = assay: Growth inhibition of human A498 cells assessed as cell growth at 10 uM incubated for 48 hrs by sulforhodamine B assay relative to control; details: A498, 48 h, read-out: Activity
RXF 393 = assay: Growth inhibition of human RXF393 cells assessed as cell growth at 10 uM incubated for 48 hrs by sulforhodamine B assay relative to control; details: RXF 393, 48 h, read-out: Activity
SN12C = assay: Growth inhibition of human SN12C cells assessed as cell growth at 10 uM incubated for 48 hrs by sulforhodamine B assay relative to control; details: read-out: Activity
UO-31 = assay: Growth inhibition of human UO31 cells assessed as cell growth at 10 uM incubated for 48 hrs by sulforhodamine B assay relative to control; details: UO-31, 48 h, read-out: Activity
PC-3 = assay: Growth inhibition of human PC3 cells assessed as cell growth at 10 uM incubated for 48 hrs by sulforhodamine B assay relative to control; details: PC-3, 48 h, read-out: Activity
MDA-MB-231 = assay: Growth inhibition of human MDA-MB-231 cells assessed as cell growth at 10 uM incubated for 48 hrs by sulforhodamine B assay relative to control; details: MDA-MB-231, 48 h, read-out: Activity
BT-549 = assay: Growth inhibition of human BT549 cells assessed as cell growth at 10 uM incubated for 48 hrs by sulforhodamine B assay relative to control; details: BT-549, 48 h, read-out: Activity
T47D = assay: Growth inhibition of human T47D cells assessed as cell growth at 10 uM incubated for 48 hrs by sulforhodamine B assay relative to control; details: read-out: Activity
MDA-MB-468 = assay: Growth inhibition of human MDA-MB-468 cells assessed as cell growth at 10 uM incubated for 48 hrs by sulforhodamine B assay relative to control; details: MDA-MB-468, 48 h, read-out: Activity

Compound	growth at 10 µM (CCRF-CEM)	growth at 10 µM (RPMI-8226)	growth at 10 µM (A549)	growth at 10 µM (NCI-H23)	growth at 10 µM (NCI-H322M)	growth at 10 µM (NCI-H460)	growth at 10 µM (NCI-H522)	growth at 10 µM (HCC 2998)	growth at 10 µM (HCT-116)	growth at 10 µM (HT-29)	growth at 10 µM (KM12)	growth at 10 µM (SW-620)	growth at 10 µM (SF-268)	growth at 10 µM (SNB-19)	growth at 10 µM (U-251)	growth at 10 µM (LOX IMVI)	growth at 10 µM (Malme-3M)	growth at 10 µM (M14)	growth at 10 µM (SK-MEL-2)	growth at 10 µM (UACC-62)	further results
CCCCOc1nc2ccc(OC)cc2cc1C1CNC(=O)c2ccccc2N1 (stereo not drawn)	106%	88.9%	86.4%	99.2%	110%	97.2%	77.4%	123%	85.3%	100%	96.6%	97.6%	99%	105%	106%	104%	123%	99%	88.7%	76.2%	growth at 10 µM (OVCAR-3): 101%; growth at 10 µM (OVCAR-8): 102%; growth at 10 µM (NCI/ADR-RES): 109%; growth at 10 µM (786-0): 96.6%; growth at 10 µM (A498): 88.5%; growth at 10 µM (RXF 393): 109%; growth at 10 µM (SN12C): 91.5%; growth at 10 µM (UO-31): 78.1%; growth at 10 µM (PC-3): 86.6%; growth at 10 µM (MDA-MB-231): 83.6%; growth at 10 µM (BT-549): 98.1%; growth at 10 µM (T47D): 94.1%; growth at 10 µM (MDA-MB-468): 96.8%
CCCCn1c(=O)c(C2CNC(=O)c3ccccc3N2)cc2ccccc21 (stereo not drawn)	110%	109%	97.1%	95%	111%	102%	92.5%	108%	94.9%	103%	101%	99.2%	98.9%	91%	98%	97.2%	107%	107%	106%	88.4%	growth at 10 µM (OVCAR-3): 99.8%; growth at 10 µM (OVCAR-8): 114%; growth at 10 µM (NCI/ADR-RES): 100%; growth at 10 µM (786-0): 92.4%; growth at 10 µM (A498): 88.7%; growth at 10 µM (RXF 393): 111%; growth at 10 µM (SN12C): 85.7%; growth at 10 µM (UO-31): 93.1%; growth at 10 µM (PC-3): 106%; growth at 10 µM (MDA-MB-231): 77.5%; growth at 10 µM (BT-549): 97.8%; growth at 10 µM (T47D): 93.7%; growth at 10 µM (MDA-MB-468): 107%
O=C1NCC(c2cc3ccccc3[nH]c2=O)Nc2ccccc21 (stereo not drawn)	110%	106%	92.4%	97.4%	100%	105%	88.6%	104%	92.6%	98.3%	103%	102%	99.9%	102%	102%	98.5%	96.8%	101%	100%	98.3%	growth at 10 µM (OVCAR-3): 111%; growth at 10 µM (OVCAR-8): 103%; growth at 10 µM (NCI/ADR-RES): 111%; growth at 10 µM (786-0): 100%; growth at 10 µM (A498): 104%; growth at 10 µM (RXF 393): 90.7%; growth at 10 µM (SN12C): 99.7%; growth at 10 µM (UO-31): 76.8%; growth at 10 µM (PC-3): 93.2%; growth at 10 µM (MDA-MB-231): 97.9%; growth at 10 µM (BT-549): 96.3%; growth at 10 µM (T47D): 91%; growth at 10 µM (MDA-MB-468): 97.5%
CCCCOc1nc2c(C)cccc2cc1C1CNC(=O)c2ccccc2N1 (stereo not drawn)	34.3%	57.5%	60%	80%	105%	56.2%	44.8%	101%	45.9%	61.4%	56.4%	42.3%	66.9%	47%	63.7%	60.8%	86.1%	54.7%	62.9%	29.1%	growth at 10 µM (OVCAR-3): 20%; growth at 10 µM (OVCAR-8): 81.2%; growth at 10 µM (NCI/ADR-RES): 51.3%; growth at 10 µM (786-0): 46.2%; growth at 10 µM (A498): 55.3%; growth at 10 µM (RXF 393): 78.3%; growth at 10 µM (SN12C): 70.9%; growth at 10 µM (UO-31): 67.8%; growth at 10 µM (PC-3): 40.1%; growth at 10 µM (MDA-MB-231): 65.3%; growth at 10 µM (BT-549): 74.5%; growth at 10 µM (T47D): 58.4%; growth at 10 µM (MDA-MB-468): 51.6%
O=C1NCC(c2cc3ccc4ccccc4c3[nH]c2=O)Nc2ccccc21 (stereo not drawn)	81.5%	109%	82.4%	102%	111%	82.3%	90.4%	97.8%	44.1%	95%	99.1%	91.5%	77.8%	89.2%	102%	90.6%	96.9%	102%	92.2%	95.2%	growth at 10 µM (OVCAR-3): 107%; growth at 10 µM (OVCAR-8): 78%; growth at 10 µM (NCI/ADR-RES): 99%; growth at 10 µM (786-0): 92.8%; growth at 10 µM (A498): 88.6%; growth at 10 µM (RXF 393): 101%; growth at 10 µM (SN12C): 79.3%; growth at 10 µM (UO-31): 105%; growth at 10 µM (PC-3): 88.8%; growth at 10 µM (MDA-MB-231): 65.3%; growth at 10 µM (BT-549): 93.1%; growth at 10 µM (T47D): 85.7%; growth at 10 µM (MDA-MB-468): 116%
Cc1cccc2cc(C3CNC(=O)c4ccccc4N3)c(=O)[nH]c12 (stereo not drawn)	123%	114%	91.7%	98.4%	92%	109%	70%	103%	95.5%	81.3%	99.6%	110%	99.6%	114%	94.5%	94.3%	96%	98.4%	96.9%	106%	growth at 10 µM (OVCAR-3): 104%; growth at 10 µM (OVCAR-8): 103%; growth at 10 µM (NCI/ADR-RES): 103%; growth at 10 µM (786-0): 111%; growth at 10 µM (A498): 103%; growth at 10 µM (RXF 393): 106%; growth at 10 µM (SN12C): 114%; growth at 10 µM (UO-31): 92.8%; growth at 10 µM (PC-3): 89.1%; growth at 10 µM (MDA-MB-231): 110%; growth at 10 µM (BT-549): 112%; growth at 10 µM (T47D): 93.1%; growth at 10 µM (MDA-MB-468): 107%
